Active and inactive are the calls of the source.
Columns and labels:
P388/ADR = assay: cells; assay type: functional; details: Mus musculus
SN12K1 = assay: cells; assay type: functional; details: Homo sapiens
P388 = assay: cells; assay type: functional; details: Mus musculus
Paired box protein Pax-8 = Paired box protein Pax-8 (Homo sapiens, UniProt Q06710); assay: inhibitors of PAX8-driven TPO luciferase reporter, dose response, RMG-I cells, cherry-pick (AID 687027); assay type: functional, cell-based;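 also: luciferase reporter driven by Pax8 target thyroperoxidase promoter measured by SteadyGlo luminescence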
[1] = target: T1, Ubiquitin-conjugating enzyme E2 N (Homo sapiens, UniProt P61088); assay type: functional;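 also: Dose-response confirmation in a TR-FRET assay detecting UBC13-driven polyubiquitin chain formation, inhibition measured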
T1 sequence (P61088 whole entry): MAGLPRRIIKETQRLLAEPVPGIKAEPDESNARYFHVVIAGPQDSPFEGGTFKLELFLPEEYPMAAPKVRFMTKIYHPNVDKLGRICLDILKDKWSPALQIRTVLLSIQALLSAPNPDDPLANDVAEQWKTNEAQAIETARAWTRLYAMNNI

[2] = target: T2, Apoptotic protease-activating factor 1 (Homo sapiens, UniProt O14727); assay type: functional
T2 sequence (O14727 whole entry): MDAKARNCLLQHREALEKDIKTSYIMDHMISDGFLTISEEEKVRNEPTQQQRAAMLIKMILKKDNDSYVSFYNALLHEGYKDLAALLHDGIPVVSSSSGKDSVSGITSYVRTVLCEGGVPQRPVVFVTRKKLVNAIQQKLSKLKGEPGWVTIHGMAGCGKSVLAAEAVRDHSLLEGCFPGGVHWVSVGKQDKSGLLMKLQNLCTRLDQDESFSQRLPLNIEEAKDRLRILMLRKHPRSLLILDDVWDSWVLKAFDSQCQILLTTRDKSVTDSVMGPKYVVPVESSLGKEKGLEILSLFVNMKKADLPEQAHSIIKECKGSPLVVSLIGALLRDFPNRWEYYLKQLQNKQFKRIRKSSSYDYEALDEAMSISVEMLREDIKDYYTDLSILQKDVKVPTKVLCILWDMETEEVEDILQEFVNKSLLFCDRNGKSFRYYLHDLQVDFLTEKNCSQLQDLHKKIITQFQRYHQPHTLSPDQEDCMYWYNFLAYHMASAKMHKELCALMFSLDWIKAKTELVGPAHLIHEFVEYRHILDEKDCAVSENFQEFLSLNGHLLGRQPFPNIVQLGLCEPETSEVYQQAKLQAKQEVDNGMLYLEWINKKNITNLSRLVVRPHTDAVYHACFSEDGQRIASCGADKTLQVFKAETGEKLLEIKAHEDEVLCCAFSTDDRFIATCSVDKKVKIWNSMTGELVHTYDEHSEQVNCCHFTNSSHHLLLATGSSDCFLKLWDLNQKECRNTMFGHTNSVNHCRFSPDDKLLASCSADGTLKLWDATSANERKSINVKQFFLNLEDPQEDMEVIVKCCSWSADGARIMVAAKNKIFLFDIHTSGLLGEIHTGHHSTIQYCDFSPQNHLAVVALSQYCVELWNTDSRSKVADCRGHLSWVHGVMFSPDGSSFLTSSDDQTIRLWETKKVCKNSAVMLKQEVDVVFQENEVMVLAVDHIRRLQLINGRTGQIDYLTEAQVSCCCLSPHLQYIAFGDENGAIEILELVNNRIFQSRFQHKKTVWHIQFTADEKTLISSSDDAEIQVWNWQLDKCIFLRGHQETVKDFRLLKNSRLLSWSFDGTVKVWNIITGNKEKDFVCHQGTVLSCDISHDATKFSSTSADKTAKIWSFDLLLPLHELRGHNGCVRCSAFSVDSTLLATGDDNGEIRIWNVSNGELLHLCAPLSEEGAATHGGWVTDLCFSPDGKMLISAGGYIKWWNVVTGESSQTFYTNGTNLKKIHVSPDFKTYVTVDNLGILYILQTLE

[3] = cytotoxicity in HEK-293T cells, dose response, cytotoxicity control for TCR NF-kB inhibitor project, luminescence, T-cell screen hits (AID 489026); assay type: functional, cell-based;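 also: cells exposed to compound about 14 hours before the viability readout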
Fatty acid synthase [4] = target: T3, Fatty acid synthase (Homo sapiens, UniProt P49327); assay: FAS thioesterase domain inhibitors, dose response, biochemical, endpoint fluorescence intensity, uHTS hits (AID 624327); assay type: functional;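 also: fluorescence from hydrolysis of an O-methyl fluorescein acyl ester substrate by the enzyme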
Fatty acid synthase [5] = target: T3, Fatty acid synthase; assay: FAS thioesterase domain inhibitors, dose response, biochemical, kinetic fluorescence intensity (AID 624326); assay type: functional;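 also: rate of fluorescence rise from hydrolysis of a fluorogenic O-methyl fluorescein ester substrate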
[6] = inhibitors of intracellular T. cruzi replication, confirmation, NIH3T3 host cells, beta-gal luminescence (AID 2044); assay type: functional, cell-based;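 also: intracellular parasites grown in NIH/3T3 mouse fibroblasts as host cells; luminescent beta-galactosidase reporter signal from transgenic T. cruzi replicating inside host cells; inhibitors lower the luminescence signal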
[7] = cytotoxicity toward NIH3T3 fibroblasts, dose response, counter-screen, cell-based, ATP luminescence, mouse fibroblasts (AID 2010); assay type: functional;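 also: cells exposed to compound for about 90 hours before reading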
[8] = target: T4, Histone-lysine N-methyltransferase NSD2 (Homo sapiens, UniProt O96028); assay type: biochemical
T4 sequence (O96028 whole entry): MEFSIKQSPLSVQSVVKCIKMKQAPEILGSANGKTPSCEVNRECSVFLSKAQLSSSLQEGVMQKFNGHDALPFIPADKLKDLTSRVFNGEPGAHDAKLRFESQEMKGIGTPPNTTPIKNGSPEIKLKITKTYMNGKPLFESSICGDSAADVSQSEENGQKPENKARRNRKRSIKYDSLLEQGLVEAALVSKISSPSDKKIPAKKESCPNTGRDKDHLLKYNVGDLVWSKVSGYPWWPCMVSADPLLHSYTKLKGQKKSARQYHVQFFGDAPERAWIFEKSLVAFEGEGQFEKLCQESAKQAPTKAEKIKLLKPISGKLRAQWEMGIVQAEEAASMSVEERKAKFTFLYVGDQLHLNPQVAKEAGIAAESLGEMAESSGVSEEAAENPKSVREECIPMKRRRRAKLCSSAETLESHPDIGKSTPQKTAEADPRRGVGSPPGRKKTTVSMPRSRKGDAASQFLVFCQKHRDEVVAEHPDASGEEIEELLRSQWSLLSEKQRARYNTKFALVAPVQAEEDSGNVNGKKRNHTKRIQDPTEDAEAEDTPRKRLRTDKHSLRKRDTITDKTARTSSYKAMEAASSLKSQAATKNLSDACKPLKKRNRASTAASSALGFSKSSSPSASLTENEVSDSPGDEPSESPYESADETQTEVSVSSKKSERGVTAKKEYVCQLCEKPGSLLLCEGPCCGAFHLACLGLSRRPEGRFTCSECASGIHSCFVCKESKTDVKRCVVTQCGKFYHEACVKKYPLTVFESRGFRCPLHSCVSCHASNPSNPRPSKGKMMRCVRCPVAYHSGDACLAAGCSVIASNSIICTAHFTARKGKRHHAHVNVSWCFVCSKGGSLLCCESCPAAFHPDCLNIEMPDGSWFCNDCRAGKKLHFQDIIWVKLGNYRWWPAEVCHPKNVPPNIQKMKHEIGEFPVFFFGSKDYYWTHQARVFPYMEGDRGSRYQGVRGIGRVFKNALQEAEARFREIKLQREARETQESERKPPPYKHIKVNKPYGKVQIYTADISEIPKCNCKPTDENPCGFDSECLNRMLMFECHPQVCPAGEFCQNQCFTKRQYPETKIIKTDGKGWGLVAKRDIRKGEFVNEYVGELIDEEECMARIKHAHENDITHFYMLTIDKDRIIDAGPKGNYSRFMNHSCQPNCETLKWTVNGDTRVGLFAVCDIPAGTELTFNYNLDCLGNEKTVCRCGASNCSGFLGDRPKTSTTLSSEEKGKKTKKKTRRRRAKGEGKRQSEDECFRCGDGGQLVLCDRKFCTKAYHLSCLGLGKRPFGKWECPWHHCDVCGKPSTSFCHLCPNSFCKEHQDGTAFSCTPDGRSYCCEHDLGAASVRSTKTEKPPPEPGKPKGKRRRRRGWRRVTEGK

[9] = inhibitors of HIV Env-driven cell fusion, dose response, cherry-pick (AID 652057); assay type: functional, cell-based
[10] = inhibitors of clade B AD8 Env fusion, dose response, cell-based, cherry-pick (AID 652062); assay type: functional;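 also: luciferase signal from cell-cell fusion driven by HIV-1 clade B AD8 Env; potency is for inhibitors of fusion seen as a drop in luminescence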
[11] = inhibitors of firefly luciferase expression or activity, dose response, H4 neuroglioma cells, luminescence (AID 1990); assay type: functional, cell-based
[12] = Luminescence Cell-Based Dose Response HTS to Identify Inhibitors of 5'UTR Stem-Loop Driven Prion Protein mRNA Translation in H4 Neuroglioblastoma Cells. [Related pubchem assays: 1827 (Project Summary), 1813 (Primary HTS)]; assay type: functional
[13] = inhibitors of SNCA 5'UTR-driven reporter translation, confirmation, H4 neuroglioma cells, luminescence (AID 1988); assay type: functional, cell-based

T3 sequence (P49327 whole entry, the tested form may be a part): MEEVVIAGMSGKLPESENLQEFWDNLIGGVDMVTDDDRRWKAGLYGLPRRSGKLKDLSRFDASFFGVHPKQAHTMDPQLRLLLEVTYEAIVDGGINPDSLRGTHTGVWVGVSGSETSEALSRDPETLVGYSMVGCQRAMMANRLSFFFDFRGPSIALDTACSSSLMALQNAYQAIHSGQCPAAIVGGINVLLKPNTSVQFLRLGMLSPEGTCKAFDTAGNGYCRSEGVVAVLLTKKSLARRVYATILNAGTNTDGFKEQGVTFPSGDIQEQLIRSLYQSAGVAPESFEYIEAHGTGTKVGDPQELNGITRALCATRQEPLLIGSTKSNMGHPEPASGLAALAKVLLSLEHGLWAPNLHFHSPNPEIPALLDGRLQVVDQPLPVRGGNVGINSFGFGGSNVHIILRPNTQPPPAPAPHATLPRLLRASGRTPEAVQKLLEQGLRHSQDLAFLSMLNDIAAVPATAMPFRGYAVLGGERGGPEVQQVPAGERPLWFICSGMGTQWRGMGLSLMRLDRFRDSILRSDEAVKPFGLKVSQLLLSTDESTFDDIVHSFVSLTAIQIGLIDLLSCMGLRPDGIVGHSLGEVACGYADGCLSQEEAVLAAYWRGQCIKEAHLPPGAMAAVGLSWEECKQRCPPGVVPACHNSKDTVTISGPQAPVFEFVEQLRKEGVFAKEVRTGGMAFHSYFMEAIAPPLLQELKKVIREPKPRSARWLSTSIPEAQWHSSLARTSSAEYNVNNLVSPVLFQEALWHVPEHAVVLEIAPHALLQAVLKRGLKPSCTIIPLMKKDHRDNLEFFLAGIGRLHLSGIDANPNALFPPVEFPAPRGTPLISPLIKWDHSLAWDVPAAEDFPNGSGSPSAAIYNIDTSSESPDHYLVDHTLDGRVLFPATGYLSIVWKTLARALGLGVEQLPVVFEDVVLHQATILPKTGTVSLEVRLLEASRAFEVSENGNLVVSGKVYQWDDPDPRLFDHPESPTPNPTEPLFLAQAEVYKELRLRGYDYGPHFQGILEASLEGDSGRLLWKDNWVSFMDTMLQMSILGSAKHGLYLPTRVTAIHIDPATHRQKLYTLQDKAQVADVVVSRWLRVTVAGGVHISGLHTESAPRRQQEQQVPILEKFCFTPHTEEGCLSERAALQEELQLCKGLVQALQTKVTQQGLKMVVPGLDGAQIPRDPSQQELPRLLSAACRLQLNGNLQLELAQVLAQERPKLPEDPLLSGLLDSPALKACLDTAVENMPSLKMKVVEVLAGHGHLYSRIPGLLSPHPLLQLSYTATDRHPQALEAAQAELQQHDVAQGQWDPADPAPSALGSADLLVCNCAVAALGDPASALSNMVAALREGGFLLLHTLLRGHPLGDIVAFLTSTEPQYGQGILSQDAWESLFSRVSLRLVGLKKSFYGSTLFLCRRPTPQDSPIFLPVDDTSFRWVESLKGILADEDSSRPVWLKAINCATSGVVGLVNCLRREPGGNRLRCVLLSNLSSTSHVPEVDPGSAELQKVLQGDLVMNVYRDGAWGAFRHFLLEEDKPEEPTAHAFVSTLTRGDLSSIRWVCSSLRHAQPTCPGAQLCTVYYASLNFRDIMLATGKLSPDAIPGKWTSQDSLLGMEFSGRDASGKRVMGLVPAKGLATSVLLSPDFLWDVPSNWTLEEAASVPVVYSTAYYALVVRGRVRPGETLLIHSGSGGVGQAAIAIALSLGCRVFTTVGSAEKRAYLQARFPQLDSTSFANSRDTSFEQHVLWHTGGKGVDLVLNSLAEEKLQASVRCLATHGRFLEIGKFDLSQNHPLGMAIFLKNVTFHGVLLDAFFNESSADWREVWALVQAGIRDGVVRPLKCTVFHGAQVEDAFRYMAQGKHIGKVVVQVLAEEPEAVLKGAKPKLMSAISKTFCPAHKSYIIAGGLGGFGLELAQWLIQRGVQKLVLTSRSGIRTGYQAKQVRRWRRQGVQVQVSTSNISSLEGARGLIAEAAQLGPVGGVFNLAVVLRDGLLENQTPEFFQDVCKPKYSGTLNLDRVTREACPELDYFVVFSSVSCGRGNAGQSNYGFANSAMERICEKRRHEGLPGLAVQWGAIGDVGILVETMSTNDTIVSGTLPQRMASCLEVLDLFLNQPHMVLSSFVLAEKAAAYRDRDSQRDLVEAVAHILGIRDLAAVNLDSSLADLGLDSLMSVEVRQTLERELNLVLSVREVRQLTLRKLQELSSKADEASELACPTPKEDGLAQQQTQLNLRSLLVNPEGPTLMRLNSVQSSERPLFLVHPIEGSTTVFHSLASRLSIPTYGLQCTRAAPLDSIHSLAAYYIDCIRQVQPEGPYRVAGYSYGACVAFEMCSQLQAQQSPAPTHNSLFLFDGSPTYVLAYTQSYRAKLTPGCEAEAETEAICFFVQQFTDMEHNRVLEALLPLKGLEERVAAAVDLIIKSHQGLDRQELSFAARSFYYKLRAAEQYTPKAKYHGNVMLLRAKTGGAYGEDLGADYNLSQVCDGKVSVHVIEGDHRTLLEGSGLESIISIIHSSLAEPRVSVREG
Sequence of Paired box protein Pax-8 (Q06710 whole entry): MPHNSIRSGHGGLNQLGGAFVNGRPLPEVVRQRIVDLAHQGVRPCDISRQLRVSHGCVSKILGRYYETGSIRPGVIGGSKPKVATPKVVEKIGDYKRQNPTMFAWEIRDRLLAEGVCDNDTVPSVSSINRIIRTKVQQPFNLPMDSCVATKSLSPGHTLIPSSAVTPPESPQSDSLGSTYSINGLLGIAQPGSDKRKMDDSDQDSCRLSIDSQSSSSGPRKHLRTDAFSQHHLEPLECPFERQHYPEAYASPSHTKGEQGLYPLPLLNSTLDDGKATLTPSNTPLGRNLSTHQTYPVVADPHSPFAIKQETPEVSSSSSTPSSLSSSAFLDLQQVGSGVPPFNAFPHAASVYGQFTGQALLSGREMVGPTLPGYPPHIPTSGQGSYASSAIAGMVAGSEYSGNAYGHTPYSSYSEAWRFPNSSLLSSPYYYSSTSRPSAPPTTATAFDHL

C=C(C)c1nc(Oc2ccccc2)nc(Oc2ccccc2)n1
GI50 (P388/ADR): 0.824 µM (active)
GI50 (SN12K1): 3.35 µM (inactive)
GI50 (P388): 1.17 µM (inactive)
AC50 (Paired box protein Pax-8): 3.04 µM (active)

COC(=O)C1=C(C)N(Cc2ccccc2)C(NCCc2c[nH]c3ccccc23)=N[C@H]1c1cccc(C(F)(F)F)c1
IC50 [1]: > 20 µM (inactive)
IC50 [2]: 71 µM (active)

CCOC(=O)N/N=C/c1c(C)nn(-c2cccc(C(F)(F)F)c2)c1Cl
IC50 [3]: 69.6 µM (inactive)

CNC=O
GI50 (P388/ADR): > 10000 µM (inactive)
GI50 (SN12K1): > 10000 µM (inactive)
GI50 (P388): > 5620 µM (inactive)

N[C@H](C(=O)O)[C@@H]1CC(Cl)=NO1 [ACIVICIN]
GI50 (P388/ADR): 0.471 µM (active)
GI50 (SN12K1): 1.13 µM (inactive)
GI50 (P388): 0.242 µM (active)

COc1ccccc1/N=C(\C)C1=C(O)CC(c2ccccc2)CC1=O (centres undefined)
IC50 [3]: > 80 µM (inactive)

COc1ccc2[nH]c3c(c2c1)CCN1C(=O)C(CC(=O)NC(C)(C)C)C[C@H](C(=O)N2CCOCC2)[C@@]31CCC1CCCC1 (some centres undefined)
IC50 (Fatty acid synthase [4]): 8.32 µM (active)
IC50 (Fatty acid synthase [5]): 7.48 µM (active)

Cc1sc(N2CCN(S(=O)(=O)c3ccc4c(c3)NC(=O)CO4)CC2)nc1-c1ccccc1
IC50 (Fatty acid synthase [4]): 4.15 µM (active)
IC50 (Fatty acid synthase [5]): 4.04 µM (active)

COc1cc(/C=C/C(=O)Oc2ccc(NC(C)=O)cc2)ccc1C(=O)O/C=C/c1ccccc1
GI50 (P388/ADR): 8.02 µM (inactive)
GI50 (SN12K1): > 100 µM (inactive)
GI50 (P388): 18.8 µM (inactive)

Cc1c(Cl)c([N+](=O)[O-])nn1CCCC(=O)N(Cc1ccccc1)Cc1ccccc1
EC50 [6]: 1.86 µM (active)
EC50 [7]: 29.7 µM (active)
IC50 (Fatty acid synthase [4]): 10 µM (active)
IC50 (Fatty acid synthase [5]): 11 µM (active)

CCN(CC)CCCN(Cc1cc2cc3c(cc2nc1O)OCO3)C(S)=NCCCOC
AC50 [8]: > 20 µM (inactive)

Cc1cccc(OCC(=O)N/N=C/c2cc([N+](=O)[O-])ccc2N2CCOCC2)c1
IC50 (Fatty acid synthase [4]): 9.22 µM (active)
IC50 (Fatty acid synthase [5]): 8.84 µM (active)

CN(C)c1cc(N/N=C/c2ccccc2C(F)(F)F)nc(N(C)C)n1
IC50 [2]: 5.07 µM (active)

C[C@H](NC(=O)c1[nH]cnc1C(=O)N[C@@H](CCCCNC(=O)OC(C)(C)C)C(=O)OC(C)(C)C)C(=O)OC(C)(C)C
IC50 (Fatty acid synthase [4]): 2.95 µM (active)
IC50 (Fatty acid synthase [5]): 2.6 µM (active)

CC(=O)OC1CCC2(C)C(CCC3C2CCC2(C)C(c4ccc(=O)oc4)C(OC(C)=O)CC32O)C1 (centres undefined)
GI50 (P388/ADR): 40.9 µM (inactive)
GI50 (SN12K1): 0.0144 µM (active)
GI50 (P388): 14.6 µM (inactive)

OC[C@H]1O[C@@H](n2cnc3cncnc32)[C@H](O)[C@@H]1O [NEBULARINE]
GI50 (P388/ADR): 0.305 µM (active)
GI50 (SN12K1): 1.48 µM (inactive)
GI50 (P388): 0.321 µM (active)

COc1ccccc1OCCNC(=O)c1cccc(S(=O)(=O)N2CCN(Cc3ccccc3)CC2)c1
IC50 [1]: > 20 µM (inactive)
IC50 [2]: > 100 µM (inactive)

O=C(NCc1ccc2c(c1)OCO2)c1ccc(C2SCC(=O)N2Cc2ccco2)cc1 (centres undefined)
IC50 (Fatty acid synthase [4]): 8.5 µM (active)
IC50 (Fatty acid synthase [5]): 5.95 µM (active)

C[C@H](CO)N1C[C@H](C)[C@@H](CN(C)C(=O)Nc2cccc(C(F)(F)F)c2)OCc2ccccc2-c2ccccc2C1=O
AC50 [9]: < 0.285 µM (active)
AC50 [10]: 0.346 µM (active)

CO[C@H]1Nc2c(ccc(C)c2O)C(=O)N2C=C(/C=C/C(N)=O)C[C@@H]12 [ANTHRAMYCIN METHYL ETHER]
GI50 (P388/ADR): 0.101 µM (active)
GI50 (SN12K1): 0.0197 µM (active)
GI50 (P388): 0.0436 µM (active)

Cc1ccc(-c2ccc3c(c2)O[C@@H](CN(C)Cc2ccncc2)[C@H](C)CN([C@H](C)CO)S3(=O)=O)cc1
AC50 [9]: 10.2 µM (active)
AC50 [10]: 14.2 µM (active)

CCOC(=O)C1CCCN(c2nc3c(C)cccn3c(=O)c2/C=C(\C#N)C(=O)NCc2ccco2)C1 (centres undefined)
IC50 (Fatty acid synthase [4]): 16.2 µM (active)
IC50 (Fatty acid synthase [5]): 8.23 µM (active)

C=C1C(C)C2C(Cc3ccccc3)NC(=O)C23OC(=O)/C=C\CC(=O)CCC(C)C/C=C/C3C1O (centres undefined)
GI50 (P388/ADR): 0.224 µM (active)
GI50 (SN12K1): 0.444 µM (active)
GI50 (P388): 0.0552 µM (active)

COCCCNC(=O)C(=O)Nc1ccc2c(c1)N(S(=O)(=O)c1cccs1)CCC2
EC50 [11]: 4.45 µM (inconclusive)
EC50 [12]: 6.86 µM (active)
EC50 [13]: 0.419 µM (active)
IC50 [3]: > 80 µM (inactive)

CC(C)n1c(CN(C)Cc2ccccc2)nc2c1c(=O)n(C)c(=O)n2C
EC50 [11]: 43 µM (active)
EC50 [12]: > 120 µM (not active)
EC50 [13]: > 120 µM (not active)
IC50 [3]: > 80 µM (inactive)

O=C1Sc2sc(=S)sc2SC1c1ccccc1 (centres undefined)
GI50 (P388/ADR): 23.7 µM (inactive)
GI50 (SN12K1): 25.1 µM (inactive)
GI50 (P388): 22.5 µM (inactive)

From ChEMBL document CHEMBL1201862, “PubChem BioAssay data set” (2004)
